Patent US9561212B2, “Hepatitis C virus inhibitors” (BRISTOL-MYERS SQUIBB COMPANY, priority 2012, dated 2017)

Test system: HCV 1b genotype
Experiment: microbe, parasite or virus in culture
Type: cell-based, Hepatitis C virus
Settings: HCV 1b replicon; read-out: Range: EC50 ranges against HCV 1b
Method: An HCV Replicon assay was utilized in the present disclosure, and was prepared, conducted and validated as described in commonly owned PCT/US2006/022197 and in O'Boyle et. al. Antimicrob Agents Chemother. 2005 April; 49(4):1346-53. Assay methods incorporating luciferase reporters have also been used as described (Apath.com).
HCV-neo replicon cells and replicon cells containing resistance substitutions in the NS5A region were used to test the currently described family of compounds.

First: COC(=O)NC(C(=O)N1[C@@H](C)CC[C@H]1c1nc(-c2ccc(-c3ccc(-c4c[nH]c([C@@H]5CC[C@H](C)N5C(=O)C(NC(=O)OC)=C5CC(C)(C#N)C5)n4)cc3)cc2)c[nH]1)=C1CC(C)(C#N)C1 (stereo partly drawn) [Example 12.2, dimethyl (4,4′-biphenyldiylbis(1H-imidazole-4,2-diyl((2S,5S)-5-methyl-2,1-pyrrolidinediyl)(1-(3-cyano-3-methylcyclobutylidene)-2-oxo-2,1-ethanediyl)))biscarbamate]
Second: COC(=O)NC(C(=O)N1[C@@H](C)CC[C@H]1c1ncc(-c2ccc(-c3ccc(-c4cnc([C@@H]5CC[C@H](C)N5C(=O)C(NC(=O)OC)C5CCOC6(CCC6)C5)[nH]4)cc3)cc2)[nH]1)C1CCOC2(CCC2)C1 (single isomer, unassigned) [Example 2.4]
The EC50 of the first is higher: 900 to 700000 pM for the first, 5.01 to 100 pM for the second. The second is the more potent here.

First: COC(=O)NC(C(=O)N1[C@@H](C)CC[C@H]1c1ncc(-c2ccc(-c3ccc(-c4cnc([C@@H]5CC[C@H](C)N5C(=O)C(NC(=O)OC)C5CCOC6(CCCC6)C5)[nH]4)cc3)cc2)[nH]1)C1CCOC2(CCCC2)C1 (single isomer, unassigned) [Example 3.2]
Second: methyl (2-((2S)-2-(7-(2-((2S)-1-(((methoxycarbonyl)amino)(4-oxaspiro[2.5]oct-7-yl)acetyl)-2-pyrrolidinyl)-1H-benzimidazol-5-yl)-4,5-dihydro-1H-naphtho[1,2-d]imidazol-2-yl)-1-pyrrolidinyl)-1-(4-oxaspiro[2.5]oct-7-yl)-2-oxoethyl)carbamate [QC12]
The EC50 of the first is higher: 900 to 700000 pM for the first, 100 to 900 pM for the second.

Compared with COC(=O)NC(C(=O)N1[C@@H]2C[C@@H]2C[C@H]1c1nc(-c2ccc(-c3ccc(-c4c[nH]c([C@@H]5C[C@H]6C[C@H]6N5C(=O)C(NC(=O)OC)C5[C@H]6COC[C@@H]56)n4)cc3)cc2)c[nH]1)C1[C@H]2COC[C@@H]12 (single isomer, unassigned; diastereomer 2) [QC4.2], COC(=O)NC(C(=O)N1[C@@H](C)CC[C@H]1c1ncc(-c2ccc(-c3ccc(-c4cnc([C@@H]5CC[C@H](C)N5C(=O)C(NC(=O)OC)C5CCOC6(CCC6)C5)[nH]4)cc3)cc2)[nH]1)C1CCOC2(CCC2)C1 (single isomer, unassigned) [Example 2.2] is higher in EC50: 100 to 900 pM for the first, 900 to 700000 pM for the second.

First: COC(=O)NC(C(=O)N1[C@@H]2C[C@@H]2C[C@H]1c1nc(-c2ccc(-c3ccc(-c4c[nH]c([C@@H]5C[C@H]6C[C@H]6N5C(=O)C(NC(=O)OC)C5C[C@@H]6[C@H](C5)C6(F)F)n4)cc3)cc2)c[nH]1)C1C[C@@H]2[C@H](C1)C2(F)F (single isomer, unassigned; diastereomer 2) [QC2.2]
Second: COC(=O)N[C@@H](C(=O)N1[C@@H]2C[C@@H]2C[C@H]1c1nc(-c2ccc(-c3ccc(-c4c[nH]c([C@@H]5C[C@H]6C[C@H]6N5C(=O)[C@H](NC(=O)OC)[C@H]5C[C@H]6C[C@H]6C5)n4)cc3)cc2)c[nH]1)[C@H]1C[C@H]2C[C@H]2C1 (single isomer, unassigned; diastereomer 3) [QC3.3]
The EC50 of the first is lower: 5.01 to 100 pM for the first, 100 to 900 pM for the second. The first is the more potent here.

Same assay, conditions: Hepatitis C virus, HCV 1b replicon; read-out: 1b (μM): EC50 (Effective 50% inhibitory concentration) against the HCV 1b genotype

Going from COC(=O)NC(C(=O)N1CCC[C@H]1c1nc2cc(-c3ccc4c(ccc5nc([C@@H]6CCCN6C(=O)C(NC(=O)OC)C6CCOC7(CC7)C6)[nH]c54)c3)ccc2[nH]1)C1CCOC2(CC2)C1 (stereo partly drawn) [QC10, methyl (2-((2S)-2-(7-(2-((2S)-1-(((methoxycarbonyl)amino)(4-oxaspiro[2.5]oct-7-yl)acetyl)-2-pyrrolidinyl)-1H-benzimidazol-5-yl)-1H-naphtho[1,2-d]imidazol-2-yl)-1-pyrrolidinyl)-1-(4-oxaspiro[2.5]oct-7-yl)-2-oxoethyl)carbamate] to COC(=O)NC(C(=O)N1CCC[C@H]1c1nc(-c2ccc(-c3c[nH]c([C@@H]4CCCN4C(=O)C(NC(=O)OC)C4CCOC5(CC5)C4)n3)cc2)c[nH]1)C1CCOC2(CC2)C1 (stereo partly drawn) [Example QC14, dimethyl (benzene-1,4-diylbis(1H-imidazole-4,2-diyl(2S)pyrrolidine-2,1-diyl(1-(4-oxaspiro[2.5]oct-7-yl)-2-oxoethane-2,1-diyl)))biscarbamate], the EC50 rises from 259 pM to 14500 pM (56-fold).

First: COC(=O)NC(C(=O)N1[C@@H](C)CC[C@H]1c1ncc(-c2ccc(-c3ccc(-c4cnc([C@@H]5CC[C@H](C)N5C(=O)C(NC(=O)OC)C5CC6(CC6)C5)[nH]4)cc3)cc2)[nH]1)C1CC2(CC2)C1 (stereo partly drawn) [Example 5.2]
Second: COC(=O)NC(C(=O)N1[C@@H](C)CC[C@H]1c1ncc(-c2ccc(-c3ccc(-c4cnc([C@@H]5CC[C@H](C)N5C(=O)C(NC(=O)OC)C5CCOC6(CCC6)C5)[nH]4)cc3)cc2)[nH]1)C1CCOC2(CCC2)C1 (single isomer, unassigned) [Example 2.3]
The EC50 of the first is 1900-fold higher: 9070 pM for the first, 4.88 pM for the second. The second is the more potent here.

Same assay, conditions: Hepatitis C virus, HCV 1b replicon; read-out: Range: EC50 ranges against HCV 1b

First: COC(=O)NC(C(=O)N1CCC[C@H]1c1nc2cc(-c3ccc4c(ccc5nc([C@@H]6CCCN6C(=O)C(NC(=O)OC)C6CCOC7(CC7)C6)[nH]c54)c3)ccc2[nH]1)C1CCOC2(CC2)C1 (stereo partly drawn) [QC10, methyl (2-((2S)-2-(7-(2-((2S)-1-(((methoxycarbonyl)amino)(4-oxaspiro[2.5]oct-7-yl)acetyl)-2-pyrrolidinyl)-1H-benzimidazol-5-yl)-1H-naphtho[1,2-d]imidazol-2-yl)-1-pyrrolidinyl)-1-(4-oxaspiro[2.5]oct-7-yl)-2-oxoethyl)carbamate]
Second: COC(=O)NC(C(=O)N1CCC[C@H]1c1nc2cc(-c3ccc(Oc4cccc5[nH]c([C@@H]6CCCN6C(=O)C(NC(=O)OC)C6CCOC7(CC7)C6)nc45)cc3)ccc2[nH]1)C1CCOC2(CC2)C1 (stereo partly drawn) [QC15, methyl (2-((2S)-2-(5-(4-((2-((2S)-1-(((methoxycarbonyl)amino)(4-oxaspiro[2.5]oct-7-yl)acetyl)pyrrolidin-2-yl)-1H-benzimidazol-4-yl)oxy)phenyl)-1H-benzimidazol-2-yl)pyrrolidin-1-yl)-1-(4-oxaspiro[2.5]oct-7-yl)-2-oxoethyl)carbamate]
The EC50 of the first is higher: 100 to 900 pM for the first, 5.01 to 100 pM for the second. The second is the more potent here.

Compared with COC(=O)NC(C(=O)N1[C@@H](C)CC[C@H]1c1nc(-c2ccc(-c3ccc(-c4c[nH]c([C@@H]5CC[C@H](C)N5C(=O)C(NC(=O)OC)=C5CC(C)(C#N)C5)n4)cc3)cc2)c[nH]1)=C1CC(C)(C#N)C1 (stereo partly drawn) [Example 12.1, dimethyl (4,4′-biphenyldiylbis(1H-imidazole-4,2-diyl((2S,5S)-5-methyl-2,1-pyrrolidinediyl)(1-(3-cyano-3-methylcyclobutylidene)-2-oxo-2,1-ethanediyl)))biscarbamate], COC(=O)N[C@H](C(=O)N1[C@@H]2C[C@@H]2C[C@H]1c1nc(-c2ccc(-c3ccc(-c4c[nH]c([C@@H]5C[C@H]6C[C@H]6N5C(=O)[C@@H](NC(=O)OC)C5CCC(=O)CC5)n4)cc3)cc2)c[nH]1)C1CCC(=O)CC1 [Example OL10, dimethyl (4,4′-biphenyldiylbis(1H-imidazole-4,2-diyl(1R,3S,5R)-2-azabicyclo[3.1.0]hexane-3,2-diyl((1S)-2-oxo-1-(4-oxocyclohexyl)-2,1-ethanediyl)))biscarbamate] is lower in EC50: 900 to 700000 pM for the first, 100 to 900 pM for the second. The second is the more potent here.

COC(=O)N[C@H](C(=O)N1CC2(CCCC2)C[C@H]1c1nc(-c2ccc(-c3ccc(-c4c[nH]c([C@@H]5CC6(CCCC6)CN5C(=O)[C@@H](NC(=O)OC)C5C[C@@H](C)O[C@H](C)C5)n4)cc3)cc2)c[nH]1)C1C[C@@H](C)O[C@H](C)C1 (stereo partly drawn) [Example JLR-1.0, dimethyl (4,4′-biphenyldiylbis(1H-imidazole-4,2-diyl(3S)-2-azaspiro[4.4]nonane-3,2-diyl((1S)-1-((2R,6R)-2,6-dimethyltetrahydro-2H-pyran-4-yl)-2-oxo-2,1-ethanediyl)))biscarbamate] and COC(=O)N[C@H](C(=O)N1[C@H](c2nc(-c3ccc(-c4ccc(-c5c[nH]c([C@@H]6C[C@@]7(C)C[C@H]7N6C(=O)[C@@H](NC(=O)OC)[C@H]6CCOC7(CC7)C6)n5)cc4)cc3)c[nH]2)C[C@@]2(C)C[C@@H]12)[C@H]1CCOC2(CC2)C1 [QC19, dimethyl (4,4′-biphenyldiylbis(1H-imidazole-4,2-diyl((1R,3S,5R)-5-methyl-2-azabicyclo[3.1.0]hexane-3,2-diyl)(1-(4-oxaspiro[2.5]oct-7-yl)-2-oxo-2,1-ethanediyl)))biscarbamate] fall in the same range of EC50: 5.01 to 100 pM for the first, 5.01 to 100 pM for the second.

First: COC(=O)NC(C(=O)N1[C@@H](C)CC[C@H]1c1ncc(-c2ccc(-c3ccc(-c4cnc([C@@H]5CC[C@H](C)N5C(=O)C(NC(=O)OC)C5CC6(CC6)C5)[nH]4)cc3)cc2)[nH]1)C1CC2(CC2)C1 (stereo partly drawn) [Example 5.2]
Second: COC(=O)N[C@H](C(=O)N1[C@@H](C)CC[C@H]1c1ncc(-c2ccc(-c3ccc(-c4cnc([C@@H]5CC[C@H](C)N5C(=O)[C@@H](NC(=O)OC)C5CC6(COC6)C5)[nH]4)cc3)cc2)[nH]1)C1CC2(COC2)C1 (stereo partly drawn) [Example 13, dimethyl (4,4′-biphenyldiylbis(1H-imidazole-5,2-diyl((2S,5S)-5-methyl-2,1-pyrrolidinediyl)((1S)-1-(2-oxaspiro[3.3]hept-6-yl)-2-oxo-2,1-ethanediyl)))biscarbamate]
The EC50 of the first is higher: 900 to 700000 pM for the first, 5.01 to 100 pM for the second. The second is the more potent here.

COC(=O)N[C@H](C(=O)N1[C@@H](C)CC[C@H]1c1ncc(-c2ccc(-c3ccc(-c4cnc([C@@H]5CC[C@H](C)N5C(=O)[C@@H](NC(=O)OC)[C@H]5C[C@H](C)O[C@@H](C6CC6)C5)[nH]4)cc3)cc2)[nH]1)[C@H]1C[C@H](C)O[C@@H](C2CC2)C1 [Example 9.3, dimethyl ((S,R,S,1S,1′S)-((2S,2′S,5S,5′S)-5,5′-(5,5′-([1,1′-biphenyl]-4,4′-diyl)bis(1H-imidazole-5,2-diyl))bis(2-methylpyrrolidine-5,1-diyl))bis(1-((2R,4S,6S)-2-cyclopropyl-6-methyltetrahydro-2H-pyran-4-yl)-2-oxoethane-2,1-diyl))dicarbamate] and COC(=O)N[C@H](C(=O)N1[C@@H](C)CC[C@H]1c1ncc(-c2ccc(-c3ccc(-c4cnc([C@@H]5CC[C@H](C)N5C(=O)[C@@H](NC(=O)OC)[C@@H]5CCO[C@H](C6CC6)C5)[nH]4)cc3)cc2)[nH]1)[C@@H]1CCO[C@H](C2CC2)C1 [Example 7] fall in the same range of EC50: 5.01 to 100 pM for the first, 5.01 to 100 pM for the second.

First: COC(=O)NC(C(=O)N(C)[C@@H](C)c1nc2cc(C#Cc3ccc4nc([C@H](C)N(C)C(=O)C(NC(=O)OC)C5CCOC6(CC6)C5)[nH]c4c3)ccc2[nH]1)C1CCOC2(CC2)C1 (stereo partly drawn) [OL2, methyl (2-(((1S)-1-(5-((2-((1S)-1-((((methoxycarbonyl)amino)(4-oxaspiro[2.5]oct-7-yl)acetyl)(methyl)amino)ethyl)-1H-benzimidazol-6-yl)ethynyl)-1H-benzimidazol-2-yl)ethyl)(methyl)amino)-1-(4-oxaspiro[2.5]oct-7-yl)-2-oxoethyl)carbamate]
Second: COC(=O)NC(C(=O)N1CCC[C@H]1c1nc(-c2ccc(-c3c[nH]c([C@@H]4CCCN4C(=O)C(NC(=O)OC)C4CCOC5(CC5)C4)n3)cc2)c[nH]1)C1CCOC2(CC2)C1 (stereo partly drawn) [Example QC14, dimethyl (benzene-1,4-diylbis(1H-imidazole-4,2-diyl(2S)pyrrolidine-2,1-diyl(1-(4-oxaspiro[2.5]oct-7-yl)-2-oxoethane-2,1-diyl)))biscarbamate]
The EC50 of the first is lower: 5.01 to 100 pM for the first, 900 to 700000 pM for the second. The first is the more potent here.
